Source: publication PMC12454493, “Insight on novel sulfamoylphenyl pyrazole derivatives as anticancer carbonic anhydrase inhibitors” (Molecular Diversity, 2024)
Like-named read-outs stand apart in the source and are kept apart here.

Tests used:
hCA IX = hCA IX (Homo sapiens, UniProt Q16790); details: cited from earlier work
hCA XII = hCA XII (Homo sapiens, UniProt O43570); details: cited from earlier work
[1] = system: MCF-7 breast cancer cell line; experiment: In vitro cytotoxicity, MTT assay; details: Homo sapiens
Protocol: In vitro cytotoxic activity:
Firstly, cultures were delivered into sterile area then each vial was supplied with 3 mL of medium or balanced salt solution free from phenol red and serum. Cultures were subjected to incubation foe 2-4 g. After the incubation period, MTT solubilization solution was added to remove the produced formazan crystals. Spectrophotometric measurement of absorbance was carried out at 690 nm for the background which then subtracted from absorbance measured at 570 nm. Five different drug concentrations were used 100, 25, 6.3, 1.6 and 0.4 nM and measured in triplicate.
Cell cycle analysis and Apoptotic assay
was determined using Annexin V-FITC Apoptosis Detection Kit (Bio Vision) according to the manufacturer’s procedures. Briefly, cell lines were cultured and incubated with each of the tested compounds for 48 h. Then, the cells were collected by centrifugation and resuspended in 500 μl of 1X binding buffer. 5 μl of Annexin V-FITC was added and 5 μl of propidium iodide (PI 50 mg/ml, optional.). The cells were incubated at room temperature for
Em = 530 nm) using FITC signal detector and PI staining was analyzed by the phycoerythrin emission signal detector.
Apoptotic assay: cell lines were cultured and incubated with each of the tested compounds for 48 h.
Then, the cells were collected by centrifugation and resuspended in 500 μl of 1X binding buffer. 5 μl of Annexin V-FITC was added and 5 μl of propidium iodide (PI 50 mg/ml, optional.). the cells were incubated at room temperature for 5 min in the dark.
signal detector and PI staining was analyzed by the phycoerythrin emission signal detector.

Chain of hCA XII (O43570 25-354): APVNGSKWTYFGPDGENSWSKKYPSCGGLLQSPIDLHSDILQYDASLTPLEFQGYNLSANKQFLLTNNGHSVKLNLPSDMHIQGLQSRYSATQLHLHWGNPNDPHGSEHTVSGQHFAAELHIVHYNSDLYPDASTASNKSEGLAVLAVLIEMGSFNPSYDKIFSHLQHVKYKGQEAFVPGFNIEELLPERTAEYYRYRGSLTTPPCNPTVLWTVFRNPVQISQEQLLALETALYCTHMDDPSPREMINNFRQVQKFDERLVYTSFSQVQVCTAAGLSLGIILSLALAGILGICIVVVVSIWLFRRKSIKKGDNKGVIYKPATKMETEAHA

| SMILES | Ki (hCA IX) | Ki (hCA XII) | IC50 ([1]; MCF7, read-out: IC50 (µM) ± SD cytotoxic activity, MCF-7, MTT, normal conditions) | IC50 ([1]; MCF7, read-out: IC50 (µM) ± SD cytotoxic activity, MCF-7, MTT, under hypoxia) |
| --- | --- | --- | --- | --- |
| COc1ccc(C2CC(C3=CC=CCC3=S)=NN2c2ccc(S(N)(=O)=O)cc2)c(OC)c1OC (stereo not shown) [IV] | 0.044 µM | 0.009 µM |  |  |
| COc1cccc2c1C(=O)c1c(O)c3c(c(O)c1C2=O)C[C@@](O)(C(=O)CO)C[C@@H]3O[C@H]1C[C@H](N)[C@H](O)[C@H](C)O1 [Doxorubicin, doxorubicin, reference compound] |  |  | 11.6 ± 0.46 µM | 2.72 ± 0.11 µM |
